“And” between values parts separate entries of the source, which are not always exact repeats. Equal values may be shown once.
What was measured:
[1] = test system: MOG-induced EAE; experiment: Summary of studies of GA-blocking + laquinimod in MOG-induced EAE (Examples 2.1-2.3); format: in vivo, mice
Description: FIG. 4 is a graphical representation summarizing experimental results from Examples 2.1-2.3.
At higher doses (5 and 25 mg/kg) laquinimod provides an additive effect over GA-blocking as summarized in Table 9 and shown on FIGS. 4A and 4B.

[2] = test system: MOG-induced EAE; experiment: MOG-induced EAE with GA blocking and s.c. daily GA (Example 2.5); format: in vivo, C57B1 mice; parameters: key to MMS value / GMS value: EAE clinical grade (Table 2); ≥1 = sick, 6 = dead/sacrificed
Description: The objective of this study was to test the suppressive effect of laquinimod alone and in combination with Glatiramer acetate in the EAE model in C57B1 mice. […] Laquinimod was administered orally at dose levels of 2.5 and 5.0 mg/kg.
EAE was induced in the mice by the injection of the encephalitogenic emulsion (MOG/CFA). Laquinimod was administered orally for 30 consecutive days.
EAE induction EAE was induced by injecting the encephalitogenic mixture (emulsion) consisting of MOG ([…]). A 0.2 ml emulsion was injected subcutaneously into the flanks of the mice. Pertussis toxin was injected intraperitoneally on the day of induction and 48 hours later (total amount will be 0.150+0.150=0.300 μg/mouse in 0.2 ml dosage volume).
Groups 1, 3-8: 45.9 mg MOG was diluted in […] Normal Saline (3.0 mg/ml MOG stock solution). 12.5 mL of 3.0 mg/ml stock solution was diluted in 12.5 mL Normal Saline to yield 1.5 mg MOG/mL. […] The emulsification was made from equal parts of oil and liquid portions (1:1) in two syringes connected to each other with Leur lock, transferred to insulin syringe and 0.2 ml was injected the right flank of each mouse. The dose of the MOG in all the groups (1 to 8) was […].
The test concentrations of laquinimod were prepared in purified water. For high dose (25.0 mg/kg) 2.5 mg/mL stock solution was prepared (group 8). The 2.5 mg/mL stock solution was diluted 1:5 and 1:10 to yield 0.5 and 0.25 mg/mL for dose levels of 5.0 mg/kg for groups 5 and 7 and 2.5 mg/kg respectively for groups #4 and 6. Laquinimod was administered daily from the initiation of the study, to the respective groups by gavage at a volume of 0.2 ml/mouse.
(§1) Every day one tube was thawed and brought to RT.
Clinical signs Scoring of EAE clinical signs was started from Day 10 post EAE induction and was continued daily until Day 30. The clinical signs were recorded according to a grading system described in the Table 2 above.
(§2) All mice having scores of 1 and above were considered sick. When the first clinical sign appeared all mice were given food soaked in water, which was spread on different places on the bedding of the cages. An animal which continued to have score 5 for three days was killed on humane grounds and given score 6 on the next day. For calculation purposes, the score of animals that were sacrificed or died (6) was carried forward.

[3] = test system: MOG-induced EAE; experiment: MOG-induced EAE with GA blocking and s.c. daily GA (Example 2.4); format: in vivo, C57B1 mice; parameters: key to MMS value / GMS value: clinical score per grading system; 1+ = sick, 5 = dead/killed
Description: The C57B1 strain of mouse was selected, as it is an established EAE model.
Laquinimod was administered daily orally for 30 days at dose level of 5.0 mg/kg or 25.0 mg/kg.
Disease was induced in the mice by the injection of the encephalitogenic emulsion (MOG/CFA). Laquinimod was administered orally for 30 consecutive days from the initiation of the study.
EAE induction EAE was induced by injecting the encephalitogenic mixture (emulsion) consisting of MOG (150.0 μg/mouse). A volume of 0.2 ml of emulsion was injected subcutaneously into the flanks of the mice. Pertussis toxin was injected intraperitoneally on the day of induction and 48 hours later (total amount was 0300 μg/mouse in 0.2 ml dosage volume).
The emulsion (for groups 2 and 3 and groups 1 and 4 to 8) were made from equal parts of oil and liquid portions (1:1) in two syringes connected to each other with Leur lock, transferred to insulin syringe and 0.2 ml was injected to the right flank of each mouse. The dose of the MOG in all the groups (1 to 8) was 150 μg/mouse.
The test concentrations of laquinimod were prepared in purified water. For high dose (25.0 mg/kg) 2.5 mg/mL stock solution were prepared (groups #3, 6 and 8). The stock solutions were diluted 1:5 to yield 0.5 mg/mL for dose level of 5.0 mg/kg for groups 5 and 7. Laquinimod was administered to the respective groups by gavage at a volume of 0.2 ml/mouse.
as §1
Clinical signs Scaring of EAE clinical signs was started from Day 10 post EAE induction and was continued daily until Day 30. The clinical signs were recorded according to a grading system described in the table 11 below
as §2, with “mice” for “All mice”, “4” for “5”, “5” for “6”, “died” for “died (6)”
• The number of sick animals in each group were summed. • The incidence of disease was calculated as
• The number of dead or moribund animals in each group were summed. • The mortality of disease was calculated as
• The mean duration of disease expressed in days was calculated as
• The mean onset of disease expressed in days was calculated as
• The mean maximal score (MMS) of each group was calculated as
• The daily scores of each mouse in the test group were summed and the Individual mean daily score (IMS) was calculated as […]

[4] = LAQ 2.5 mg/kg oral daily 30 d, alone or + GA 250 mg/kg s.c. daily 10 d
[5] = LAQ 2.5 mg/kg oral daily 30 d, alone or + GA 250 mg/kg s.c. daily 10 d, listed as LAQ
[6] = LAQ 5.0 mg/kg oral daily 30 d, alone or + GA 250 mg/kg s.c. daily 10 d
[7] = LAQ 25.0 mg/kg oral daily 30 d, alone or + GA 250 mg/kg s.c. daily 10 d
[8] = GA blocking 12.5 mg/kg once with encephalitogen
[9] = GA blocking 12.5 mg/kg once with encephalitogen, listed as GA blocking
[10] = GA blocking 12.5 mg/kg once with encephalitogen, alone or + LAQ 25.0 mg/kg oral daily 30 d
[11] = GA blocking 12.5 mg/kg once with encephalitogen, alone or + LAQ 25.0 mg/kg oral daily 30 d, listed as GA blocking

## CCN(C(=O)c1c(O)c2c(Cl)cccc2n(C)c1=O)c1ccccc1 [laquinimod]
[1]; Mus musculus, laquinimod 2.5 mg/kg, alone or + GA Blocking, read-out: Mean percent inhibition, Examples 2.1-2.3 summarized
  inhibition at 2.5 mg/kg: 53.6%
[1]; Mus musculus, laquinimod 5 mg/kg, alone or + GA Blocking, read-out: Mean percent inhibition, Examples 2.1-2.3 summarized
  inhibition at 5 mg/kg: 57.3%
[1]; Mus musculus, laquinimod 25 mg/kg, alone or + GA Blocking, read-out: Mean percent inhibition, Examples 2.1-2.3 summarized
  inhibition at 25 mg/kg: 74.9%
[2]; [4]
  % Inhibition 1 (incidence): 57.1%
  GMS value: 0.5 ± 0.8
  Incidence: 6/15
  MMS % Inhibition 2: 55.9%
  MMS value: 1.5 ± 2.1
  Mean Duration: 0.8 ± 2.6 days
  Mean Onset: 30.3 ± 2.6 days
  Mortality: One
[2]; [5]
  GMS % Inhibition 3: 76.2%
  Mortality: 1/15
[2]; LAQ 2.5 mg/kg oral daily 30 d, alone or + GA 250 mg/kg s.c. daily 10 d, listed as LQ
  GMS % Inhibition 3: 76.2%
[2]; [6]
  % Inhibition 1 (incidence): 64.3%
  GMS value: 0.6 ± 0.7
  Incidence: 9/15
  MMS % Inhibition 2: 38.2%
  MMS value: 2.1 ± 1.8
  Mean Duration: 5.7 ± 6.6 days
  Mean Onset: 25.1 ± 6.8 days
  Mortality: 0/15
[2]; LAQ 25.0 mg/kg oral daily 30 d
  % Inhibition 1 (incidence): 100.0%
  GMS % Inhibition 3: 100.0%
  GMS value: 0.0 ± 0.0
  Incidence: 0/15
  MMS % Inhibition 2: 100.00%
  MMS value: 0.0 ± 0.0
  Mean Duration: 31.0 ± 0.0 days
  Mean Onset: 0.0 ± 0.0 days
  Mortality: 0/15
[2]; LAQ 25.0 mg/kg oral daily 30 d, listed as LAQ
  GMS % Inhibition 3: 100.00%
[2]; LAQ 25.0 mg/kg oral daily 30 d, listed as LQ
  GMS % Inhibition 3: 100%
[3]; [6]
  % Inhibition 1 (incidence): 52.9%
  GMS % Inhibition 3: 71.4%
  GMS value: 0.6 ± 0.9
  Incidence: 8/10
  MMS % Inhibition 2: 55.9%
  MMS value: 1.5 ± 1.8
  Mean Duration: 4.2 ± 6.0 days
  Mean Onset: 26.9 ± 6.0 days
  Mortality: 0/20
[3]; [7]
  % Inhibition 1 (incidence): 88.2%
  GMS % Inhibition 3: 95.2%
  GMS value: 0.1 ± 0.4
  Incidence: 2/20
  MMS % Inhibition 2: 91.2%
  MMS value: 0.3 ± 1.0
  Mean Duration: 0.8 ± 2.6 days
  Mean Onset: 30.3 ± 2.6 days
  Mortality: 0/20

## L-glutamic acid polymer with L-alanine, L-lysine and L-tyrosine, acetate (salt) [GA]
[1]; GA-blocking alone
  Mean percent inhibition, Examples 2.1-2.3 summarized: 67.6%
[2]; GA 250 mg/kg s.c. daily 10 d
  % Inhibition 1 (incidence): 100.0%
  GMS % Inhibition 3: 4.8%
  GMS value: 2.0 ± 1.0
  Incidence: 13/15
  MMS % Inhibition 2: 2.9%
  MMS value: 3.3 ± 1.4
  Mean Duration: 12.1 ± 5.3 days
  Mean Onset: 18.1 ± 5.5 days
[2]; [8]
  % Inhibition 1 (incidence): 57.1%
  GMS value: 0.7 ± 1.0
  Incidence: 6/15
  MMS % Inhibition 2: 61.8%
[2]; [9]
  GMS % Inhibition 3: 66.7%
  MMS value: 1.3 and 1.3 ± 1.8
  Mean Duration: 12.1 days and 12.1 ± 5.3 days
  Mean Onset: 26.1 ± 7.0 days
[2]; GA blocking 12.5 mg/kg once with encephalitogen, listed as GA-Block
  GMS % Inhibition 3: (66.7) %
[3]; GA 250 mg/kg s.c. daily 10 d
  % Inhibition 1 (incidence): 23.5%
  GMS % Inhibition 3: 38.1%
  GMS value: 1.3 ± 1.1
  Incidence: 13/20
  MMS % Inhibition 2: 26.5%
  MMS value: 2.5 ± 1.9
  Mean Duration: 8.3 ± 6.7 days
  Mean Onset: 22.5 ± 6.7 days
[3]; [10]
  % Inhibition 1 (incidence): 52.9%
  GMS value: 0.5 ± 0.9
  Incidence: 8/20
  MMS % Inhibition 2: 70.6%
  Mean Duration: 4.3 ± 6.3 days
  Mean Onset: 26.6 ± 6.4 days
[3]; [11]
  GMS % Inhibition 3: 76.2%
  MMS value: 1.0 ± 1.5
[3]; GA blocking 12.5 mg/kg once with encephalitogen, alone or + LAQ 25.0 mg/kg oral daily 30 d, listed as GA-Block
  GMS % Inhibition 3: (76.2) %

— patent US20160038532A1, “Treatment of Multiple Sclerosis With Combination of Laquinimod and Glatiramer Acetate” (TEVA PHARMACEUTICAL INDUSTRIES, LTD., priority 2011, published 2016)
